The subject of data set [1] is Monocyte. The data set is described as follows: Anti-osteoclastogensis in C57BL/6 mouse bone marrow monocytes assessed as inhibition of RANKL/M-CSF induced osteoclastogenesis at 10 uM incubated for 5 days relative to control. Format: functional. Conditions: C57BL/6, Monocyte, 120 h, time 5 day.
In data set [2] the test system is RAW264.7. The data set is described as follows: Inhibition of RANKL-induced MAPK signaling in mouse RAW264.7 cells assessed as inhibition of p38 phosphorylation incubated for 60 mins in presence of RANKL by Western blot analysis. It is filed as cell-based. To be noted: dose 5-10 µM.
Data set [3] can be described thus: Selectivity index, ratio of CC50 for cytotoxicity against C57BL/6 mouse bone marrow monocytes to IC50 for anti-osteoclastogensis in C57BL/6 mouse bone marrow monocytes assessed as inhibition of RANKL/M-CSF induced osteoclastogenesis. Format: cell-based, Monocyte. To be noted: read-out: Ratio CC50/IC50.
For data set [4], the system named is Monocyte. The data set is described as follows: Anti-osteoclastogensis in C57BL/6 mouse bone marrow monocytes assessed as inhibition of RANKL/M-CSF induced osteoclastogenesis at 10 uM incubated for 5 days. Format: functional, cell-based. To be noted: C57BL/6, Monocyte, 120 h.
Data set [5] relates to RAW264.7. The data set is described as follows: Inhibition of RANKL-induced MAPK signaling in mouse RAW264.7 cells assessed as inhibition of JNK1/2 phosphorylation incubated for 60 mins in presence of RANKL by Western blot analysis. Format: cell-based. Conditions: dose 5-10 µM. A general note: Immunoblotting shows a protein as a band on a membrane.
In data set [6] the test system is RAW264.7. The data set is described as follows: Inhibition of RANKL-induced MAPK signaling in mouse RAW264.7 cells assessed as inhibition of ERK1/2 phosphorylation incubated for 60 mins in presence of RANKL by Western blot analysis. It is filed as cell-based. Conditions: dose 5-10 µM.
The subject of data set [7] is RAW264.7. The data set is described as follows: Inhibition of RANKL-induced NFkappaB signaling in mouse RAW264.7 cells assessed as inhibition of NFkappab nuclear translocation at 10 uM incubated for 60 mins in presence of RANKL by Western blot analysis. It is filed as cell-based.
Data set [8] in a line: Cytotoxicity against C57BL/6 mouse bone marrow monocytes assessed as reduction in cell viability incubated for 48 hrs by MTT assay. It is filed as toxicity, cell-based, Monocyte. On the technique in general: Tetrazolium assays rely on reduction of a dye to a coloured formazan, in cell work by metabolically active cells.

Molecules are shown by their SMILES. The source made the active and inactive calls. No cut-off for these calls is given here.

As usually defined, the inhibition is the change of the read-out against control, counted positive when it falls. Broadly, the IC50 is the concentration at which inhibition is half-maximal. The term CC50 denotes the concentration giving 50% cytotoxicity.

For `C=C1CC[C@@H]2OC(=O)C=C(C[C@]3(C)CC(=O)O[C@H]3CO)C(=O)[C@]2(C)[C@@H]1C`, the inhibition at 10 µM in the data set on Monocyte [1] is 75%. Moreover, the inhibition result in the data set with RAW264.7 [2], in the data set on RAW264.7 [5] and in the data set with RAW264.7 [6] was “Dose-Dependent Effect” throughout. In data set [3], the selectivity ratio was greater than 7. For the same compound, in the data set on Monocyte [4], the concentration for half-maximal inhibition (IC50) came out at 4.2 µM. Besides, in the data set on RAW264.7 [7], the inhibition entry is “Active”. The CC50 at 48 h in data set [8] was greater than 30 µM.

With `C=C[C@@]1(C)CC(=O)O[C@H]1C1=CC[C@H]2C(C)(C)CC[C@H](O)[C@]2(C)C1=O`, in the data set on Monocyte [1], the inhibition at 10 µM came to 88.4%. In addition, the inhibition entry with RAW264.7 [2], in the data set on RAW264.7 [5] and with RAW264.7 [6] was “Dose-Dependent Effect” each time. Moreover, the selectivity ratio in data set [3] is greater than 10. The IC50 in the data set with Monocyte [4] turned out to be 3 µM. The inhibition entry with RAW264.7 [7] is “Active”. Further, the CC50 at 48 h in data set [8] was greater than 30 µM.

Values taken from ChEMBL document CHEMBL5357006, “Pestanoid A, a Rearranged Pimarane Diterpenoid Osteoclastogenesis Inhibitor from a Marine Mesophotic Zone Chalinidae Sponge-Associated Fungus, Pestalotiopsis sp. NBUF145” (J Nat Prod, 2024).
